Target: T1, HRH4 (Homo sapiens, UniProt Q9H3N8)
T1 construct: purchased Promega (in-house HiBiT-GPCR construct library, NanoBRET)
Test: NanoBRET screen HiBiT-HRH4 in HEK293
Type: binding
Protocol: Each tracer candidate was screened across the entire library of HiBiT-GPCR constructs using NanoBRET as the detection modality. As depicted in Figure 4A, the specificity of interactions was evaluated through decrease in BRET due to competitive displacement of a bound tracer by excess parental compound. Each tracer was analyzed for binding to each HiBiT-GPCR fusion in the absence and in the presence of competing parental compound. Briefly, HEK293 cells were transfected with HiBiT-GPCR constructs diluted into promoterless DNA to reduce expression and maximize translocation to the cell surface. Each tracer candidate was then screened at concentrations of 1 μM and 0.1 μM across cells expressing these fusions. Cells were treated for 1.5 h with tracer either alone or in the presence of 20 μM competing parental compound (i.e., control). BRET was measured upon addition of purified LgBiT and subsequent complementation with HiBiT genetically fused to a GPCR. The specificity of interactions was assessed through a decrease in BRET signal due to competitive displacement of the bound tracer. To further gauge the robustness of these interactions, the fold response over the control (i.e., BRETtracer/BRETcontrol) was calculated. We chose a 1.5-fold response, which translates to ≥7-fold signal over noise as the minimal threshold required to score an interaction as positive. […]. Below we highlight the screening results obtained for our exemplary fluorescent tracers based on Clozapine, Amitriptyline and AZD1283.
HiBiT-GPCR DNA constructs were diluted in 10 mM Tris pH 8 to a final concentration of 0.01 μg/μL, arrayed in 96-well plates and stored at −20 °C. For transfection, HEK293 cells were suspended in Opti-MEM (without phenol red) supplemented with 2% fetal bovine serum (Seradigm) and 100 units/mL penicillin–streptomycin (Gibco) at a final concentration of 220,000 cells/mL and dispensed into white 96-well plates at 90 μL/well. Subsequent transfections and screens were carried using an Agilent Bravo Automated Liquid Handling Platform. First, the 96-well HiBiT DNA arrays were diluted 25-fold in Opti-MEM (without serum or phenol red) to a final concentration of 0.0004 μg/μL and 20 μL of the diluted DNAs were transferred into new 96-well plates. Next, promoterless carrier DNA (1 μg/μL) was diluted 25-fold (0.04 μg/μL) and then dispensed into the diluted arrays at 20 μL/well. Following brief mixing, Viafect transfection reagent (Promega) diluted 16-fold into Opti-MEM was dispensed into the plates at 40 μL/well. After mixing by pipetting, plates were incubated for 10 min on the pipetting station deck. The DNA-transfection reagent complexes were then added to plates containing cells. To facilitate the screen, 10 μL of DNA-transfection reagent complexes were added in duplicates to the top 4 and bottom 4 rows, resulting in two identical 48-well arrays per plate. Plates with transfected cells were incubated for 18–20 h at 37 °C/5% CO2. A screen of each tracer across the entire library using two different concentrations requires duplicate plates of transfected cells. Depending on the number of tracers being screened, transfections can be scaled up using the same ratios. The next day, for each tracer, four 20× screening solutions in tracer dilution buffer (Promega) were prepared: two duplicates at final concentration of 20 μM and two duplicates at a final concentration of 2 μM. A competing unmodified compound was added to one of each duplicate at a final concentration of 400 μM. The four resulting solutions were diluted 4-fold in Opti-MEM without serum or phenol red to generate 5× solutions (5 µM and 0.5 µM tracer +/− 100 μM competing compound). To screen the library, a BioTek MultiFlo FX liquid dispenser was used to dispense 22.5 µL of tracer solution to the top 4 rows and 22.5 µL tracer + competing compound solution to the 4 bottom rows. Plates were briefly mixed on an orbital shaker and incubated for 1.5 h at room temperature. […]

T1 sequence (Q9H3N8 whole entry): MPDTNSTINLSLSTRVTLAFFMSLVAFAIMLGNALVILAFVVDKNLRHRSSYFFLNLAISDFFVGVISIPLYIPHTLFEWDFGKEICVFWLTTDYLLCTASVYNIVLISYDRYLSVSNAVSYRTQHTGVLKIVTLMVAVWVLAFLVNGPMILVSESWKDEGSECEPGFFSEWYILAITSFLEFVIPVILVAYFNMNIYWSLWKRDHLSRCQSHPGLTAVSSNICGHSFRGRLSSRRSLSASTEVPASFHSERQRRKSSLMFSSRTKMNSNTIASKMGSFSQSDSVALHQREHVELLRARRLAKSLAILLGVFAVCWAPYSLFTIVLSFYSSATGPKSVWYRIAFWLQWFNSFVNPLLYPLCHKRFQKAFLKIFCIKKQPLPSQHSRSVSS

Row | SMILES | NanoBRET Fold Response (HRH4, tracer 0.1μM) | NanoBRET Fold Response (HRH4, tracer 1μM) | also measured
1 | O=C(CCc1ccc2n1[B-](F)(F)[N+]1=C(c3ccc[nH]3)C=CC1=C2)NCc1ccc(C(=O)NCCOCCC(=O)N[C@@H]2CC[C@@]3(O)[C@H]4Cc5ccc(O)c6c5[C@@]3(CCN4CC3CC3)[C@H]2O6)cc1 [Naltrexone-3-NB590] | 0.75 | 0.91 | –
2 | CCCn1c(=O)c2[nH]c(-c3ccc(OCC(=O)NCCNC(=O)CCOCCNC(=O)c4ccc(CNC(=O)CCc5ccc6n5[B-](F)(F)[N+]5=C(c7ccc[nH]7)C=CC5=C6)cc4)cc3)nc2n(CCC)c1=O [XAC-3-NB590] | 1.37 | 1.05 | –
3 | CC(C)N(CC[C@H](c1ccccc1)c1cc(CCNC(=O)c2ccc(CNC(=O)CCc3ccc4n3[B-](F)(F)[N+]3=C(c5ccc[nH]5)C=CC3=C4)cc2)ccc1O)C(C)C [Tolterodine-BZ-NB590] | 0.82 | 0.88 | –
4 | COc1ccc2[nH]c(-c3ccc(CNC(=O)CCOCCOCCOCCOCCNC(=O)CCc4ccc5n4[B-](F)(F)[N+]4=C(c6ccc[nH]6)C=CC4=C5)cc3)c(CCNC(C)=O)c2n1 [AzomelatoninICO9-2-NB590] | – | – | NanoBRET Fold Response (0.1μM tracer): 0.80; NanoBRET Fold Response (1μM tracer): 1.14
5 | CN1CCN(C2=Nc3cc(Cl)ccc3N(CC(=O)NCCOCCOCCOCCOCCNC(=O)CCc3ccc4n3[B-](F)(F)[N+]3=C(c5ccc[nH]5)C=CC3=C4)c3ccccc32)CC1 [Clozapine-c-2-NB590] | – | – | NanoBRET Fold Response (HRH4, 0.1μM tracer): 1.04; NanoBRET Fold Response (HRH4, 1μM tracer): 0.97
6 | COc1ccccc1N1CCN(CCCCN2C(=O)c3ccc(CNC(=O)CCOCCNC(=O)c4ccc(CNC(=O)CCc5ccc6n5[B-](F)(F)[N+]5=C(c7ccc[nH]7)C=CC5=C6)cc4)cc3C2=O)CC1 [NAN-190-3-NB590] | 0.93 | 0.93 | –
7 | Cc1nc2n(c(=O)c1CCN1CCC(c3noc4cc(F)ccc34)CC1)CCCC2OC(=O)NCCOCCOCCOCCOCCNC(=O)CCc1ccc2n1[B-](F)(F)[N+]1=C(c3ccc[nH]3)C=CC1=C2 (stereo not shown) [Risperidone-2-NB590] | 1.03 | 1.07 | –
8 | O=C(CCOCCOCCOCCOCCNC(=O)CCc1ccc2n1[B-](F)(F)[N+]1=C(c3ccc[nH]3)C=CC1=C2)NCCCN1CCN(C2=Nc3ccccc3Oc3ccc(Cl)cc32)CC1 [Loxapine-a-2-NB590] | 0.96 | 1.02 | –
9 | COc1ccccc1N1CCN(CCCCN2C(=O)c3ccc(CNC(=O)CCOCCOCCOCCOCCNC(=O)CCc4ccc5n4[B-](F)(F)[N+]4=C(c6ccc[nH]6)C=CC4=C5)cc3C2=O)CC1 [NAN-190-2-NB590] | 0.96 | – | –
10 | CC(C)N(CC[C@H](c1ccccc1)c1cc(CCNC(=O)CCOCCOCCOCCOCCNC(=O)CCc2ccc3n2[B-](F)(F)[N+]2=C(c4ccc[nH]4)C=CC2=C3)ccc1O)C(C)C [Tolterodine-2-NB590] | 1.05 | 1.03 | –
11 | N#CN=C(NCCCOc1cccc(CN2CCCCC2)c1)NCCNC(=O)CCOCCOCCOCCOCCNC(=O)CCc1ccc2n1[B-](F)(F)[N+]1=C(c3ccc[nH]3)C=CC1=C2 [Aminopotentidine-2-NB590] | 0.91 | 1.02 | –
12 | CCOC(=O)c1cc(C#N)c(N2CCC(C(=O)NS(=O)(=O)Cc3ccccc3/C=C/C(=O)NCCNC(=O)CCc3ccc4n3[B-](F)(F)[N+]3=C(c5ccc[nH]5)C=CC3=C4)CC2)nc1C [AZD1283-1-NB590] | – | – | NanoBRET Fold Response (HRH4, 0.1μM): 1.16; NanoBRET Fold Response (HRH4, 1μM): 1.10
13 | CN(C)CCC=C1c2ccccc2CCc2ccc(C(=O)NCCNC(=O)CCOCCOCCOCCOCCNC(=O)CCc3ccc4n3[B-](F)(F)[N+]3=C(c5ccc[nH]5)C=CC3=C4)cc21 [Amitriptyline-b-2-NB590] | – | – | NanoBRET Fold Response (tracer at 0.1μM, listed as amitriptyline-b-2-NB590): 0.97; NanoBRET Fold Response (tracer at 1μM, listed as amitriptyline-b-2-NB590): 1.13
14 | CN(C)CCC=C1c2ccccc2CCc2ccc(C(=O)NCCNC(=O)CCOCCOCCOCCOCCNC(=O)CCc3ccc4n3[B-](F)(F)[N+]3=C(c5ccc[nH]5)C=CC3=C4)cc21 [Amitriptyline-a-2-NB590] | – | – | NanoBRET Fold Response (tracer at 0.1μM): 1.23; NanoBRET Fold Response (tracer at 1μM): 1.04
15 | O=C(CCc1ccc2n1[B-](F)(F)[N+]1=C(c3ccc[nH]3)C=CC1=C2)NCCOCCOCCNC(=O)OCCOCCN1CCN(C2=Nc3ccccc3Sc3ccccc32)CC1 [Quetiapine-a-2-NB590] | 1.01 | 0.96 | –
16 | Cc1cc2c(s1)Nc1ccccc1N=C2N1CCN(CCCNC(=O)CCOCCOCCOCCOCCNC(=O)CCc2ccc3n2[B-](F)(F)[N+]2=C(c4ccc[nH]4)C=CC2=C3)CC1 [Olanzapine-a-2-NB590] | 1.01 | 0.94 | –
17 | CN1CCN(C2=Nc3cc(Cl)ccc3Nc3ccc(CNC(=O)CCOCCOCCOCCOCCNC(=O)CCc4ccc5n4[B-](F)(F)[N+]4=C(c6ccc[nH]6)C=CC4=C5)cc32)CC1 [Clozapine-b-2-NB590] | – | – | NanoBRET Fold Response (HRH4, 0.1μM tracer): 1.01; NanoBRET Fold Response (HRH4, 1μM tracer): 0.81
18 | COc1ccc2c(n1)c(CCNC(C)=O)cn2CCNC(=O)CCc1ccc2n1[B-](F)(F)[N+]1=C(c3ccc[nH]3)C=CC1=C2 [Azamelatonin-1-NB590] | – | – | NanoBRET Fold Response (0.1μM tracer): 0.92; NanoBRET Fold Response (1μM tracer): 0.92
19 | CN(CCC=C1c2ccccc2CCc2ccccc21)C(=O)CCOCCOCCOCCOCCNC(=O)CCc1ccc2n1[B-](F)(F)[N+]1=C(c3ccc[nH]3)C=CC1=C2 [Amitriptyline-e-2-NB590] | – | – | NanoBRET Fold Response (tracer at 1μM): 0.92
20 | O=C(CCc1ccc2n1[B-](F)(F)[N+]1=C(c3ccc[nH]3)C=CC1=C2)NCc1ccc(C(=O)NCCOCCOCCNCC(O)COc2cccc3ccccc23)cc1 (stereo not shown) [Propranolol-3-NB590] | – | – | NanoBRET Fold Response (HRH4, 0.1μM): 0.92; NanoBRET Fold Response (HRH4, 1μM): 0.97
21 | O=C(CCOCCOCCOCCOCCNC(=O)CCc1ccc2n1[B-](F)(F)[N+]1=C(c3ccc[nH]3)C=CC1=C2)NCCCN1CCN(C2=Nc3cc(Cl)ccc3Nc3ccccc32)CC1 [Clozapine-a-2-NB590] | – | – | NanoBRET Fold Response (HRH4, 0.1μM tracer): 1.00; NanoBRET Fold Response (HRH4, 1μM tracer): 1.07

Source: article PMC8151276, “An Integrated Approach toward NanoBRET Tracers for Analysis of GPCR Ligand Engagement” (Molecules, 2021)
